Measurements published in article PMC7044277 (Nature Communications, 2020).
Several values for one entry are separate records, joined by “and”; a condition that tells them apart may be missing. Equal values may be shown once.

Columns and labels:
Format in all cases: cell-based
320 non-olfactory GPCRs [1] = target: T1, 320 non-olfactory GPCRs (Homo sapiens, UniProt Q8NFJ6); conditions: receptor PK2; replicate values, Fig_4g
T1 construct: expressed in transfected cells; host or cells: HTLA cells

320 non-olfactory GPCRs [2] = target: T2, 320 non-olfactory GPCRs (Homo sapiens, UniProt P25105); conditions: receptor PTAFR; replicate values, Fig_4g
T2 construct: expressed in transfected cells; host or cells: HTLA cells

320 non-olfactory GPCRs [3] = target: T3, 320 non-olfactory GPCRs (Homo sapiens, UniProt Q9GZQ4); conditions: receptor NMUR2; replicate values, Fig_4g
T3 construct: expressed in transfected cells; host or cells: HTLA cells

320 non-olfactory GPCRs [4] = target: T4, 320 non-olfactory GPCRs (Homo sapiens, UniProt Q86SM8); conditions: receptor MRGPRE; replicate values, Fig_4g
T4 construct: expressed in transfected cells; host or cells: HTLA cells
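Also: fold over basal response of each receptor without drug.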

T3 sequence (Q9GZQ4 whole entry): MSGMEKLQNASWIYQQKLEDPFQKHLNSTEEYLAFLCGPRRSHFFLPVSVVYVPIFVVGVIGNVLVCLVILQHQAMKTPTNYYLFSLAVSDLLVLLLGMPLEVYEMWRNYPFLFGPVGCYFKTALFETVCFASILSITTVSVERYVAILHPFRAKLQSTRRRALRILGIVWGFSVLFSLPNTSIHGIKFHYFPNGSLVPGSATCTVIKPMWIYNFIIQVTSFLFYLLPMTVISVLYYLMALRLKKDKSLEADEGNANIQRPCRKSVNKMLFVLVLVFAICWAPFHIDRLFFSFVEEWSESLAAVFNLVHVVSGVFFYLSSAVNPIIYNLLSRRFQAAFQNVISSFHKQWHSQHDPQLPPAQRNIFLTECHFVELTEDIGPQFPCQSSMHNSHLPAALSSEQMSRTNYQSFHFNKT
T1 sequence (Q8NFJ6 whole entry): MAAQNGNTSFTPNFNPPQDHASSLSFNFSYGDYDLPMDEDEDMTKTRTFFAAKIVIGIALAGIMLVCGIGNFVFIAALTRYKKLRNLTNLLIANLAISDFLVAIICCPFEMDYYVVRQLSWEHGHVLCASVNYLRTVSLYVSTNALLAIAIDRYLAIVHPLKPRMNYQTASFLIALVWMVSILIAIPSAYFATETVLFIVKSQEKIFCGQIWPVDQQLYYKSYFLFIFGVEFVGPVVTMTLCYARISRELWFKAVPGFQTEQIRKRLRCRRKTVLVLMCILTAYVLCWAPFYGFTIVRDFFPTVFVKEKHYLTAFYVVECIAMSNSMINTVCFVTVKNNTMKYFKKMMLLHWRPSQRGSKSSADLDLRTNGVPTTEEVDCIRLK
T2 sequence (P25105 whole entry): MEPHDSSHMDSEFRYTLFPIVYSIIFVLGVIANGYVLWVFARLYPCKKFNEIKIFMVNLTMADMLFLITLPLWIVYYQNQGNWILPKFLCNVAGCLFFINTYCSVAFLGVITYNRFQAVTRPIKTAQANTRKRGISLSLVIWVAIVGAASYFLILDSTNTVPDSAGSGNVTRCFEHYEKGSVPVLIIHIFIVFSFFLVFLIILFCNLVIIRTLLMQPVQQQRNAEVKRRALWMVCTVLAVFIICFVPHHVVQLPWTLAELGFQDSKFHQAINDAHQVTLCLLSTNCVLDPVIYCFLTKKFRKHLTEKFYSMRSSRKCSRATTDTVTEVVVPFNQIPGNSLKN
T4 sequence (Q86SM8 whole entry): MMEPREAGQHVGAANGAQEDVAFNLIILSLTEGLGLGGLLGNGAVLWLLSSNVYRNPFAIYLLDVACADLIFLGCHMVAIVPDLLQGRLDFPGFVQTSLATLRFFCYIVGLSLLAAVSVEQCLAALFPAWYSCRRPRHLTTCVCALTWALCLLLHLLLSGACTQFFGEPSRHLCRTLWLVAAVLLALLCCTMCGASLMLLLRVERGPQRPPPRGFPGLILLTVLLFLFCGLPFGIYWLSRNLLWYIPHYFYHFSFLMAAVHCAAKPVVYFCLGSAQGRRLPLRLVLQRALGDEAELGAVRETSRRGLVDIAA

CCOc1cccc2cc(C(C)NCC3(O)CCCCC3)oc12 (stereo not shown) [O4LE6]
GPCRome agonism screen response (320 non-olfactory GPCRs [1]): 0.6601 and 1.45 and 1.515 and 1.156 | GPCRome agonism screen response (320 non-olfactory GPCRs [2]): 0.04948 and 0.5552 and 0.8041 | GPCRome agonism screen response (320 non-olfactory GPCRs [3]): 1.0233 and 1.105 and 1.159 and 0.9738 | GPCRome agonism screen response (320 non-olfactory GPCRs [4]): 0.6882 and 1.103 and 0.7685 and 1.012
